This is an account of results in patent US9315503B2, “Kinase inhibitors” (CHIESI FARMACEUTICI S.p.A., priority 2011, dated 2016).

For one test, the target named is T1, p38alpha (Homo sapiens, UniProt Q16539).
T1 construct: purchased Invitrogen PV3304
In words: P38Alpha enzyme inhibition assay (Alphascreen kinase activity assay). It counts as biochemical. As to conditions: 100 pM p38alpha, 250 μM ATP, 2 hours pre-incubation at 25° C., read-out: p38α inhibition (IC50 values). An outline of the steps:
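p38α (100 pM) with ATF-2 fusion protein substrate (0.3 µg/ml) in pH 7.5 HEPES/MgCl2 buffer, 1% DMSO, preincubated 2 h at 25°C with compound. Reaction started with 250 µM ATP, ran 1 h at 25°C, then stopped with EDTA. Phospho-ATF2 antibody detected by AlphaScreen luminescence; IC50 from concentration-response curves.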

For test [1], the system named is LPS-stimulated TNFα release from PBMCs. In words: LPS-stimulated PBMC TNFα release assay. As to conditions: inhibition of TNFα release, human PBMCs, LPS 10 ng/ml, 18 h, ELISA, read-out: p38α inhibition (IC50 values). The test is classed as cell-based. An outline of the steps: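 Healthy-donor human PBMCs, density-gradient isolated, preincubated 1 h at 37 °C with compound in 1% FBS RPMI 1640, then stimulated with LPS (10 ng/ml) for 18 h. Supernatant TNFα by ELISA; IC50 from dose-response of % inhibition of control release, n≥3 experiments.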

Structures can show the parent of a compound that is named as a salt.

T1 sequence (Q16539 whole entry): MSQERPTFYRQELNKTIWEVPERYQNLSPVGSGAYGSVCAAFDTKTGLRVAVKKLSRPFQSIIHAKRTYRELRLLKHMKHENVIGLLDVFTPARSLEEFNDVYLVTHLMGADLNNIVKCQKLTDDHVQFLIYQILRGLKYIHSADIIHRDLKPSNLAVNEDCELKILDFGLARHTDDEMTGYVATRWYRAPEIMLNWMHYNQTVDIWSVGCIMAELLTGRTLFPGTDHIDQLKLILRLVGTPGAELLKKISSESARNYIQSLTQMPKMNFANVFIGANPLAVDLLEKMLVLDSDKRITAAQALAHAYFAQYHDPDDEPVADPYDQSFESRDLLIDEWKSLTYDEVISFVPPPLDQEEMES

`CC(C)(C)c1cc(NC(=O)N[C@H]2CC[C@@H](Oc3ccc4nnc(N5CCCCC5)n4c3)c3ccccc32)n(-c2cccc(CN3CCC(O)CC3)c2)n1` [Example 52, 1-{5-tert-Butyl-2-[3-(4-hydroxy-piperidin-1-ylmethyl)-phenyl]-2H-pyrazol-3-yl}-3-[(1S,4R)-4-(3-piperidin-1-yl-[1,2,4]triazolo[4,3-a]pyridin-6-yloxy)-1,2,3,4-tetrahydro-naphthalen-1-yl]-urea]: the 50% inhibitory concentration (IC50) (at p38alpha; in test [1]) was less than 0.01 µM each time.

As for `CC(C)(C)c1cc(NC(=O)N[C@H]2CC[C@@H](Oc3ccc4nnc(N5CCCCC5)n4c3)c3ccccc32)n(-c2cccc(SCCO)c2)n1` [Example 53, 1-{5-tert-Butyl-2-[3-(2-hydroxy-ethylsulfanyl)-phenyl]-2H-pyrazol-3-yl}-3-[(1S,4R)-4-(3-piperidin-1-yl-[1,2,4]triazolo[4,3-a]pyridin-6-yloxy)-1,2,3,4-tetrahydro-naphthalen-1-yl]-urea], the IC50 (on p38alpha; in test [1]) was less than 0.01 µM throughout.

In the case of `Cc1ccc(-n2nc(C(C)(C)C)cc2NC(=O)N[C@H]2CC[C@@H](Oc3ccc4nnc(N5CCC(CO)CC5)n4c3)c3ccccc32)cc1` [Example 54, 1-(5-tert-Butyl-2-p-tolyl-2H-pyrazol-3-yl)-3-{(1S,4R)-4-[3-(4-hydroxymethyl-piperidin-1-yl)-[1,2,4]triazolo[4,3-a]pyridin-6-yloxy]-1,2,3,4-tetrahydro-naphthalen-1-yl}-urea], the 50% inhibitory concentration (IC50) (on p38alpha; in test [1]) was less than 0.01 µM throughout.

Take `Cc1ccc(-n2nc(C(C)(C)C)cc2NC(=O)N[C@H]2CC[C@H](Oc3ccc4nnc(N5CCCCC5)n4c3)c3ccccc32)cc1` [Example 55, 1-(5-tert-Butyl-2-p-tolyl-2H-pyrazol-3-yl)-3-[(1S,4S)-4-(3-piperidin-1-yl-[1,2,4]triazolo[4,3-a]pyridin-6-yloxy)-1,2,3,4-tetrahydro-naphthalen-1-yl]-urea]: the concentration for half-maximal inhibition (IC50) (on p38alpha; in test [1]) was less than 0.01 µM in each case.

Regarding `CC(C)(C)c1cc(NC(=O)N[C@H]2CC[C@@H](Oc3ccc4nnc(N5CCC(O)CC5)n4c3)c3ccccc32)n(-c2ccc(CO)cc2)n1` [Example 57, 1-[5-tert-Butyl-2-(4-hydroxymethyl-phenyl)-2H-pyrazol-3-yl]-3-{(1S,4R)-4-[3-(4-hydroxy-piperidin-1-yl)-[1,2,4]triazolo[4,3-a]pyridin-6-yloxy]-1,2,3,4-tetrahydro-naphthalen-1-yl}-urea], the half-inhibitory concentration (IC50) was less than 0.01 µM on p38alpha and 0.01 to 0.1 µM in test [1].

Turning to `Cc1ccc(-n2nc(C(C)(C)C)cc2NC(=O)N[C@H]2CC[C@@H](Oc3ccc4nnc([C@@H]5CCCN5C(C)C)n4c3)c3ccccc32)cc1` [Example 58, 1-(5-tert-Butyl-2-p-tolyl-2H-pyrazol-3-yl)-3-{(1S,4R)-4-[3-((S)-1-isopropyl-pyrrolidin-2-yl)-[1,2,4]triazolo[4,3-a]pyridin-6-yloxy]-1,2,3,4-tetrahydro-naphthalen-1-yl}-urea], the IC50 (at p38alpha; in test [1]) was less than 0.01 µM throughout.

Regarding `Cc1ccc(-n2nc(C(C)(C)C)cc2NC(=O)N[C@H]2CC[C@@H](Oc3ccc4nnc(N(C)C)n4c3)c3ccccc32)cc1` [Example 59, 1-(5-tert-Butyl-2-p-tolyl-2H-pyrazol-3-yl)-3-[(1S,4R)-4-(3-dimethylamino-[1,2,4]triazolo[4,3-a]pyridin-6-yloxy)-1,2,3,4-tetrahydro-naphthalen-1-yl]-urea], the concentration for half-maximal inhibition (IC50) (at p38alpha; in test [1]) was less than 0.01 µM in each case.

For the molecule `Cc1ccc(-n2nc(C(C)(C)C)cc2NC(=O)N[C@H]2CC[C@@H](Oc3ccc4nnc([C@H]5CCCN5C)n4c3)c3ccccc32)cc1` [Example 60, 1-(5-tert-Butyl-2-p-tolyl-2H-pyrazol-3-yl)-3-{(1S,4R)-4-[3-((R)-1-methyl-pyrrolidin-2-yl)-[1,2,4]triazolo[4,3-a]pyridin-6-yloxy]-1,2,3,4-tetrahydro-naphthalen-1-yl}-urea], the IC50 (on p38alpha; in test [1]) was less than 0.01 µM throughout.

Take `CCN1CCC[C@H]1c1nnc2ccc(O[C@@H]3CC[C@H](NC(=O)Nc4cc(C(C)(C)C)nn4-c4ccc(C)cc4)c4ccccc43)cn12` [Example 61, 1-(5-tert-Butyl-2-p-tolyl-2H-pyrazol-3-yl)-3-{(1S,4R)-4-[3-((S)-1-ethyl-pyrrolidin-2-yl)-[1,2,4]triazolo[4,3-a]pyridin-6-yloxy]-1,2,3,4-tetrahydro-naphthalen-1-yl}-urea]: the 50% inhibitory concentration (IC50) (at p38alpha; in test [1]) was less than 0.01 µM in each case.

Consider `Cc1ccc(-n2nc(C(C)(C)C)cc2NC(=O)N[C@H]2CC[C@@H](Oc3ccc4nnc([C@@H]5CCCCN5C)n4c3)c3ccccc32)cc1` [Example 62, 1-(5-tert-Butyl-2-p-tolyl-2H-pyrazol-3-yl)-3-{(1S,4R)-4-[3-((S)-1-methyl-piperidin-2-yl)-[1,2,4]triazolo[4,3-a]pyridin-6-yloxy]-1,2,3,4-tetrahydro-naphthalen-1-yl}-urea], for which the half-maximal inhibitory concentration (IC50) (on p38alpha; in test [1]) was less than 0.01 µM throughout.

As for `Cc1ccc(-n2nc(C(C)(C)C)cc2NC(=O)N[C@H]2CC[C@@H](Oc3ccc4nnc(N5CCC[C@H](O)C5)n4c3)c3ccccc32)cc1` [Example 63, 1-(5-tert-Butyl-2-p-tolyl-2H-pyrazol-3-yl)-3-{(1S,4R)-4-[3-((S)-3-hydroxy-piperidin-1-yl)-[1,2,4]triazolo[4,3-a]pyridin-6-yloxy]-1,2,3,4-tetrahydro-naphthalen-1-yl}-urea], the half-inhibitory concentration (IC50) (at p38alpha; in test [1]) was less than 0.01 µM in each case.

With `Cc1ccc(-n2nc(C(C)(C)C)cc2NC(=O)N[C@H]2CC[C@@H](Oc3ccc4nnc(N5CCC[C@@H](O)C5)n4c3)c3ccccc32)cc1` [Example 64, 1-(5-tert-Butyl-2-p-tolyl-2H-pyrazol-3-yl)-3-{(1S,4R)-4-[3-((R)-3-hydroxy-piperidin-1-yl)-[1,2,4]triazolo[4,3-a]pyridin-6-yloxy]-1,2,3,4-tetrahydro-naphthalen-1-yl}-urea], the IC50 (at p38alpha; in test [1]) was less than 0.01 µM each time.

As for `CN1CCCC[C@H]1c1nnc2ccc(O[C@@H]3CC[C@H](NC(=O)Nc4cc(C(C)(C)C)nn4-c4ccc(CO)cc4)c4ccccc43)cn12` [Example 65, 1-[5-tert-Butyl-2-(4-hydroxymethyl-phenyl)-2H-pyrazol-3-yl]-3-{(1S,4R)-4-[3-((S)-1-methyl-piperidin-2-yl)-[1,2,4]triazolo[4,3-a]pyridin-6-yloxy]-1,2,3,4-tetrahydro-naphthalen-1-yl}-urea, partial formate salt], the IC50 (on p38alpha; in test [1]) was less than 0.01 µM each time.

`Cc1ccc(-n2nc(C(C)(C)C)cc2NC(=O)N[C@H]2CC[C@@H](Oc3ccc4nnc(N5CCC(CCO)CC5)n4c3)c3ccccc32)cc1` [Example 66, 1-(5-tert-Butyl-2-p-tolyl-2H-pyrazol-3-yl)-3-{(1S,4R)-4-[3-(4-hydroxyethyl-piperidin-1-yl)-[1,2,4]triazolo[4,3-a]pyridin-6-yloxy]-1,2,3,4-tetrahydro-naphthalen-1-yl}-urea]: the IC50 (on p38alpha; in test [1]) was less than 0.01 µM in each case.

Regarding `Cc1ccc(-n2nc(C(C)(C)C)cc2NC(=O)N[C@H]2CC[C@@H](Oc3ccc4nnc(N5CCCCCC5)n4c3)c3ccccc32)cc1` [Example 67, 1-[(1S,4R)-4-(3-Azepan-1-yl-[1,2,4]triazolo[4,3-a]pyridin-6-yloxy)-1,2,3,4-tetrahydro-naphthalen-1-yl]-3-(5-tert-butyl-2-p-tolyl-2H-pyrazol-3-yl)-urea], the concentration for half-maximal inhibition (IC50) (at p38alpha; in test [1]) was less than 0.01 µM in each case.

Consider `Cc1ccc(-n2nc(C(C)(C)C)cc2NC(=O)N[C@H]2CC[C@@H](Oc3ccc4nnc(N5CCN(C)CC5)n4c3)c3ccccc32)cc1` [Example 68, 1-(5-tert-Butyl-2-p-tolyl-2H-pyrazol-3-yl)-3-{(1S,4R)-4-[3-(4-methyl-piperazin-1-yl)-[1,2,4]triazolo[4,3-a]pyridin-6-yloxy]-1,2,3,4-tetrahydro-naphthalen-1-yl}-urea], for which the IC50 (at p38alpha; in test [1]) was less than 0.01 µM throughout.

Take `Cc1ccc(-n2nc(C(C)(C)C)cc2NC(=O)N[C@H]2CC[C@@H](Oc3ccc4nnc(N5CCCN(C)CC5)n4c3)c3ccccc32)cc1` [Example 69, 1-(5-tert-Butyl-2-p-tolyl-2H-pyrazol-3-yl)-3-{(1S,4R)-4-[3-(4-methyl-[1,4]diazepan-1-yl)-[1,2,4]triazolo[4,3-a]pyridin-6-yloxy]-1,2,3,4-tetrahydro-naphthalen-1-yl}urea]: the IC50 (at p38alpha; in test [1]) was less than 0.01 µM each time.

For `CC(C)(C)c1cc(NC(=O)N[C@H]2CC[C@@H](Oc3ccc4nnc(N5CCCCC5)n4c3)c3ccccc32)n(-c2ccc(O)cc2)n1` [Example 70, 1-[5-tert-Butyl-2-(4-hydroxy-phenyl)-2H-pyrazol-3-yl]-3-[(1S,4R)-4-(3-piperidin-1-yl-[1,2,4]triazolo[4,3-a]pyridin-6-yloxy)-1,2,3,4-tetrahydro-naphthalen-1-yl]-urea], the IC50 (on p38alpha; in test [1]) was less than 0.01 µM in each case.

For `CC(C)(C)c1cc(NC(=O)N[C@H]2CC[C@@H](Oc3ccc4nnc(N5CCCCC5)n4c3)c3ccccc32)n(-c2ccc(C#N)cc2)n1` [Example 71, 1-[5-tert-Butyl-2-(4-cyano-phenyl)-2H-pyrazol-3-yl]-3-[(1S,4R)-4-(3-piperidin-1-yl-[1,2,4]triazolo[4,3-a]pyridin-6-yloxy)-1,2,3,4-tetrahydro-naphthalen-1-yl]-urea], the IC50 (on p38alpha; in test [1]) was less than 0.01 µM in each case.
